# Measured values as given in US20080188449A1, “Treatment of Conditions Caused By Calcium Abnormalities” (priority 2004, published 2008).
# Tests used:
# [1] = tested on: HeLa cells; assay: [^3H]-triptolide competition binding in HeLa cells; settings: for competition for [^3H]-triptolide binding: 1 μM competitor
# Protocol: To gain insight into triptolide's mechanism of action Applicants sought to determine its specific binding activity utilizing a system employing [^3H]-triptolide. In addition to competition with 1 μM or 10 μM unlabeled triptolide, Applicants also measured the binding affinities of triptolide analogs (FIG. 1A). These analogs have been previously described and differ structurally from triptolide in the hydrolysis of the 12,13 epoxide (2), and formation of the ketone at the C-14 hydroxyl (3) (FIG. 1A). […] The effective interaction of these analogs with a presumed triptolide binding entity led us to their use in subsequent experiments addressing the mode of triptolide's biological functions.
# (§1) To address first the nature of triptolide binding within the cell, Applicants determined this interaction was reversible as [^3H]-triptolide labeling was out competed by subsequent addition of excess unlabeled triptolide (FIG. 2A). […] Although 25% of the total cellular counts (i.e., representing bound triptolide) were found in the cytosolic fraction, it is uncertain whether this is specific binding or simply that free triptolide had dissociated from its binding protein due to experimental manipulation during fractionation. Since the data thus far had only shown binding within whole cells, Applicants next determined if this triptolide binding protein could be further characterized and/or enriched by its association with chromatographic reagents. HeLa cells were once again labeled with [^3H]-triptolide and total cell lysates were then passed over the anion exchange resin DEAE. Batch elutions with increasing NaCl concentrations were used to disassociate interactions of variable charge. […] Importantly, Applicants also observed that [^3H]-triptolide would only bind to intact cells in culture but would not bind to any component of a total cellular lysate as assessed by interaction with the DEAE resin. Negative results for a triptolide binding interaction were also observed with DNA-cellulose and the cation exchange resin SPFF (sulphopropyl).
# Labeling studies were performed by the addition of approximately 30 nM [^3H]-triptolide directly into the culture media for one hour at 37° C. For cold competition studies, 1 μM triptolide was incubated with the cells for one hour before or after the addition of [^3H]-triptolide. Triptolide analog studies followed a similar protocol where concentrations used for competition were either 1 or 10 μM added before [^3H]-triptolide. Medium was removed and cells were washed 3× in cold PBS. Total cell lysates were prepared (150 mM NaCl, 50 mM Tris-HCl pH 7.4, 1 mM EDTA, 1% Triton X-100, and Complete protease inhibitors (Roche)) and protein was quantitated before measuring the [^3H]-triptolide binding activity via liquid scintillation.
# [2] = tested on: HeLa cells; assay: [^3H]-triptolide binding with or without extracellular calcium
# Description: To understand further the nature of triptolide's interaction within the cell, Applicants altered cell culture conditions to examine if [^3H]-triptolide binding would be affected. […] Additionally, it has been established that aberrant calcium signaling can result in cell death (Rizzuto, et al., 2003, Oncogene 22, 8619-8627; Orrenius, et al., 2003, Nat Rev Mol Cell Biol 4, 552-565). Due to triptolide's own link with NFκB and NF-AT and its propensity to induce cell death, Applicants examined if triptolide binding could be modulated by free calcium levels. Adherent HeLa cells were cultured in the presence or absence of calcium containing medium for 16 hours before [^3H]-triptolide addition. […] It is also noteworthy that an increase in cell density (not cell number) also increases triptolide binding regardless of calcium levels. Additionally, specific calcium chelation by 10 mM EGTA for one hour in calcium containing medium increased binding by nearly 2 fold.
# Labeling studies were performed by the addition of approximately 30 nM [^3H]-triptolide directly into the culture media for one hour at 37° C. […] Total cell lysates were prepared (150 mM NaCl, 50 mM Tris-HCl pH 7.4, 1 mM EDTA, 1% Triton X-100, and Complete protease inhibitors (Roche)) and protein was quantitated before measuring the [^3H]-triptolide binding activity via liquid scintillation.
# [3] = tested on: HeLa cells; assay: Cellular fractionation of [^3H]-triptolide labeled HeLa cells; format: binding
# Description: as §1, with “DEAE.” for “DEAE. Batch elutions with increasing NaCl concentrations were used to disassociate interactions of variable charge.”, “Negative results for a triptolide binding interaction were also observed with DNA-cellulose and the cation exchange resin SPFF (sulphopropyl).” left out
# For cellular fractionation studies, cells were allowed to swell on ice and lysed by passage through a syringe in a hypotonic lysis buffer (10 mM Tris-HCl+complete protease inhibitors). […] Gel slices were measured out in equal increments and the molecular weight range of each was calculated. […]
# [4] = tested on: HeLa cells; assay: [^3H]-triptolide saturation (specific) binding assay; settings: saturation plot
# Protocol: Based upon the data above, Applicants next sought to determine if triptolide binding was saturable and if more than one protein (or binding site) was being targeted. Determination of the [^3H]-triptolide binding affinity (KD) and the binding capacity per cell (Bmax) were calculated using a saturation plot. HeLa cells were cultured to 90% confluency and subsequently treated with 0-100 nM of [^3H]-triptolide for one hour. Non-specific binding was defined using 2 μM cold triptolide as competitor. Bmax was calculated to be 99±19 fmol triptolide bound/10^5 cells of triptolide binding sites.
# Saturation binding assays were accomplished in HeLa cells adhered on 6-well plates in DMEM+10% FBS. All samples were at least 90% confluent at time of addition of triptolide. Non-specific binding of [^3H]-triptolide was assessed by the pre-incubation of 2 μM (non-labeled) triptolide for one hour. Following cold competition (or DMSO) 5, 10, 20, 50, or 100 nM of [^3H]-triptolide was added into the cultures for an additional one hour, and then cells were lysed and counted for binding activity.
# [5] = tested on: HeLa cells; assay: HeLa cell viability by trypan blue dye exclusion; format: cell-based
# Protocol: Since extracellular calcium concentration can influence triptolide binding Applicants sought to determine if the presence of calcium influences the rate of triptolide-mediated apoptosis. To first establish the growth rate of HeLa in media±calcium, cell counts were performed over a 72 hour time course. Although calcium-free media caused cells to detach more easily, the overall growth rates were similar where cell doubling occurred every 24 hours on average (FIG. 3B). For triptolide experiments, cells were initially equilibrated in medium±calcium for 16 hours before the addition of 100 nM triptolide. Cell death was assessed by trypan blue dye exclusion at 24, 48, and 72 hours post drug treatment. In the presence of calcium-containing medium, triptolide induced at least 50% cell death by 24 hours with this trend continuing through later time points (FIG. 3C).
# Applicants' results have implicated reversible binding of triptolide to a potential binding protein or complex that can be regulated by calcium. To understand if triptolide function is further separable between cell death and NFκB inhibition, Applicants examined the effect of concentration on these two endpoints. HeLa cells were cultured in the presence of 0, 10, 25, 50, or 100 nM of triptolide and separately assessed for cell death or the ability to suppress NFκB transactivation promoted by TNF-α. Following 24-48 hours of culture, viable cells were recovered and counted. Following 24 hours, triptolide concentrations from 25-100 nM caused greater than 50% of the cells to undergo cell death as assessed by detachment, clumping and the failure to exclude trypan blue dye. […] This is consistent with previous studies showing that low doses of triptolide cause cell cycle arrest rather than apoptosis (Kiviharju, et al., 2002, Clin Cancer Res 8, 2666-2674).
# (§2) Based upon Applicants' studies examining the concentration dependent effect of triptolide on the two measured biological endpoints, cell death and transcriptional repression, Applicants wanted to determine how modulating triptolide's structure may also discriminate between the two pathways. For cell viability assays, HeLa cells were incubated with 0, 0.1, 1, or 10 μM of each analog or triptolide for 24 hours and then counted using trypan blue dye exclusion. […] NFκB transcriptional inhibition was measured using the κB-luciferase assay as previously described following 5 hours of incubation with each analog (0-10 μM) and TNF-α addition.
# HeLa cells were incubated in DMEM or SMEM (Gibco) media+10% FBS and maintained at 37° C. in 5% CO2 for all experiments. HeLa cell viability was assessed by trypan blue dye exclusion, as well as by morphological examination (non-viable cells were rounded and detached from culture plate).
# [6] = tested on: NFκB transactivation; assay: κB-luciferase reporter assay (TNF-α induced); format: cell-based; settings: 5 hours
# Protocol: Having established that triptolide induced cell death is dependent upon free calcium concentration, Applicants next determined if this was also a requirement for the inhibition of NFκB transcription. HeLa cells were transiently transfected with the κB-luciferase reporter construct for 8 hours before being washed and then cultured in the presence or absence of calcium containing medium for 16 hours. Triptolide (100 nM) was pre-incubated with cells for 1 hour before addition of 15 ng/ml of TNF-α for 4 hours.
# As an additional experiment, transcriptional activity was also assessed by site-directed calcium buffering. HeLa cells were co-transfected with the κB-luciferase plasmid as well as one of the following constructs: GFP empty vector, NES-PV-GFP, or NLS-PV-GFP and proper GFP localization was confirmed. Cells were grown in the presence of calcium for 24 hours before the addition of 100 nM triptolide and 15 ng/ml TNF-α.
# NFκB transactivation was examined using the κb-luciferase reporter construct. HeLa cells were transiently transfected and pre-treated with 0-100 nM triptolide for one hour prior to TNF-α addition. Cells were assessed for NFκB driven luciferase expression after an additional five hours of incubation, at which time TNF-α had induced transcriptional activity by approximately 15-fold in control cells. […] The results thus far support a divergence of triptolide-mediated functions: the pathway regulating growth arrest/death is more sensitive to triptolide and calcium than the mechanism leading to transcriptional repression of NFκB.
# as §2
# A triple κB promoter-Luciferase reporter construct was a gift of Sankar Ghosh (Yale University). HeLa cells were plated at a density of 2×10^5 in 12 well plates and transfected with 100 ng of the κB-Luciferase plasmid plus Lipofectamine 2000 (Invitrogen) for 24 hours before the addition of 100 nM triptolide for one hour and 15 ng/ml of recombinant (human) TNF-α (Roche) for an additional five hours. The transfection efficiency of HeLa was determined to be 80-90%, and all samples were normalized to protein concentration. Luciferase assays were performed using the Firefly luciferase kit as per manufacturer's protocol (Promega) and results obtained on the Wallac Victor2 1420 Multilabel Counter (Perkin Elmer).
structure (smiles),measurement,setting,value
CC(C)[C@]12O[C@H]1[C@@H]1O[C@]13[C@]1(O[C@H]1C[C@H]1C4=C(CC[C@@]13C)C(=O)OC4)[C@@H]2O [[^3H]-triptolide],nature of binding interaction,[1]; excess unlabeled triptolide added after [^3H]-triptolide,reversible
same,increase of binding,[2]; 10 mM EGTA for one hour in calcium containing medium,~2 fold
same,increase of [^3H]-triptolide binding,[2]; absence of extracellular calcium for 16 hours,2-4 fold
same,total cellular counts found in the cytosolic fraction,[3]; S-100,25%
same,cellular fraction bound,[3]; S-100 / P-100 fractionation,predominantly to the membrane fraction (P-100)
same,binding capacity per cell (Bmax),[4],99±19 fmol triptolide bound/10^5 cells
"CC(C)C1(O)C(O)C2OC23C2(C)CCC4=C(COC4=O)C2CC2OC23C1O (stereo not shown) [analog (2), Triol-Triptolide]",competition for [^3H]-triptolide binding,[1]; HeLa cells,efficiently competes
same,cell viability,"[5]; 0.1 μM, 24 hours",not different from the untreated control
same,cell growth,"[5]; 0.1 μM, out to 72 hours",overall growth suppressive effect
same,cell death,"[5]; 1 μM, 24 hours",greater than 50%
same,effect on NFκB transcriptional activity,[6]; 1 μM,no effect
"CC(C)[C@]12O[C@H]1[C@@H]1O[C@@]13[C@@]1(C)CCC4=C(COC4=O)[C@@H]1C[C@@H]1O[C@@]13C2=O [analog (3), Triptonide]",competition for [^3H]-triptolide binding,[1]; HeLa cells,higher competitive ability than triptolide itself
same,displacement of [^3H]-triptolide binding,"[1]; 1 or 10 μM competitor one hour before [^3H]-triptolide, HeLa cells",near complete
same,effect on cells,[5]; 25 nM,only a growth suppressive effect
same,profile of cell death,"[5]; 0.1-10 μM, 24 hours",mimicked triptolide with no significant difference
same,profile of transcriptional repression,[6]; 0.1-10 μM,mimicked triptolide with no significant difference
